Experimental data: patent US20100284925A1, “Small Molecule Intervention for Obesity” (priority 2006, published 2010)
“Also recorded” adds a separate entry of the source.

Columns and labels:
[1] = tested on: phospholipid transfer protein (PLTP) gene expression; assay: PLTP gene expression in HepG2 cells by DNA microarray and Northern blot; type: cell-based, human
Method: The patent or application file contains at least one drawing executed in color. Copies of this patent with color drawings will be provided by the United States Patent and Trademark Office upon request and payment of necessary fee. FIG. 1. Pharmacological response of HepG2 cells to topotecan by DNA Microarray. HepG2 cells were treated with 500 nM for various times (A) or with various concentrations of topotecan (B) for 24 hrs. Dendrogram of the expression changes of the phospholipid transfer protein (PLTP) is shown. (C) Induction of PLTP expression by topotecan was confirmed independently by Northern blot analysis.
The mechanisms of resistance to topoisomerase (Top) 1 inhibitors by expression genomics were studied by conducting time-course and dose-response experiments by DNA microarray to investigate the pharmacological response of the human hepatocellular blastoma HepG2 cells to topotecan, which were either treated with 500 nM of topotecan (a cytotoxic anticancer agent) for various times (0, 1, 3, 5, 10, 15, and 24 hrs), or with various doses of topotecan (0, 10, 50, 100, 300, 500, and 1000 nM) for 24 hrs.
Activation of PLTP expression by topotecan was temporally regulated and dose dependent, with a late onset, peaking at 24 hrs with an approximately 20-fold induction.

[2] = tested on: PLTP; assay: PLTP release into conditioned media (Western blot); type: cell-based
Method: (§1) FIG. 10. Release of adiponectin and PLTP by preadipocytes and adipocytes, and in serum of normal mice. Preadipocytes (B and D) were treated with 2 μM of prieurianin and media collected after 36 hrs for Western blot analysis of either adiponectin (A and B) or PLTP (C and D). Alternatively, five days following differentiation, conditioned media of adipocyets (A and C) were collected for Western analysis. E. Serum of normal C57BL/6J mice given prieurianin or topotecan (0, 2, 5, and 10 mg/kg) was analyzed by Western blot for PLTP.
The expression and secretion of PLTP by preadipocytes and adipocytes was also assessed. Thus, preadipocytes produced and released both the low and the high molecular weight forms of PLTP, while adipocytes secreted only the low molecular weight form (see FIGS. 10C and 10D) into the conditioned media.

[3] = tested on: PLTP promoter; assay: PLTP-promoter luciferase reporter in HepG2 and transgenic HepG2/PLTPpLuc cells; type: cell-based, human; details: for transactivation of PLTP promoter: luciferase reporter, HepG2 or HepG2/PLTPpLuc cells; for effect on transactivation of PLTP promoter by prieurianin: co-treatment with prieurianin, 200 nM staurosporine or 200 nM TSA
Description: FIG. 2A. A 1.5 Kb PLTP promoter fused to a luciferase reporter was transactivated by topotecan dose-dependently.
FIG. 2B. Activation of PLTP promoter by topotecan in HepG2 transgenic cells containing the PLTP-promoter luciferase reporter gene fused to the neomycin selectable marker cassette and stably transfected into HepG2 cells to generate the transgenic line (Top panel). Dose-dependent induction of PLTP promoter by topotecan (Bottom panel). Results are the means S.E. of three experiments after normalization with Renilla luciferase.
FIG. 3A. Dose-dependent transactivation of the PLTP promoter by prieurianin in the HepG2 transgenic cells. Results are the means S.E. of three experiments after normalization with Renilla luciferase.
FIG. 3B. […] 1, Control; 2. […] Results are the means±S.E. of triplicate experiments.
FIG. 11. Transactivation of PLTP promoter by cytotoxic and non-cytotoxic drugs. Survey of transactivation of the PLTP promoter by various cytotoxic and non-cytotoxic drugs in the HepG2 transgenic cells was conducted. Results are the means S.E. of three experiments.
FIG. 12. Effects of trichostatin A (TSA) on transactivation of PLTP promoter by prieurianin. Dose response activation of PLTP promoter by prieurianin either in the presence or the absence of 200 nM TSA. Results are the means S.E. of three experiments.
To determine whether non-cytotoxic small molecules could induce PLTP expression, the inventor herein subcloned the PLTP-promoter luciferase reporter into a vector containing a neomycin (G418)-resistance selectable marker and generated a transgenic HepG2 cell line, which harbors the PLTP-promoter luciferase reporter, by stable gene transfection and selection with G418.
The transgenic cells were then screened with a library of small molecules derived from natural products.

[4] = tested on: PLTP; assay: Serum PLTP protein by Western blot in normal C57BL/6J mice; type: in vivo; details: normal C57BL/6J mice, 0, 2, 5 and 10 mg/kg
Method: as §1

[5] = tested on: adiponectin; assay: Adiponectin release into conditioned media (Western blot); type: cell-based; details: NIH-3T3/L1 preadipocytes, approximately 36 hrs after treatment
Method: as §1
Adipose tissue contains various types of cells including preadipocytes and adipocytes. Also, preadipocytes secrete factors involved in their own differentiation. Once differentiated, the mature adipocytes acquire the ability to communicate distally with other organs including brain, liver, and skeletal muscle and locally with other cells such as preadipocytes, endothelial cells and monocytes/macrophages by secreting leptin and adiponectin. In addition, anti-adipogenic cytokines prevent the release of adiponectin by preadipocytes. Thus, the production of adiponectin and PLTP by preadipocytes and adipocytes was assessed.

[6] = tested on: NIH-3T3/L1 preadipocytes; assay: Differentiation of NIH-3T3/L1 preadipocytes into adipocytes (oil red O or Nile Red staining); type: cell-based
Method: FIG. 7. […] NIH-3T3/L1 cells were induced into differentiation and simultaneously treated with 2 μM of prieurianin. Differentiated cells were stained with oil red O—FIG. 7A, undifferentiated control.
Histogram represents A510 nm absorbance of oil red O stain isopropanol extracts from cells. Results are means±S.E. of triplicate experiments.
(§2) FIG. 19. Effects of bufalin on preadipocyte differentiation, and dedifferentiation/delipidation in adipo-cytes. NIH-3T3/L1 cells were induced into differentiation and simultaneously treated with either 1 μM of bufalin or 2 μM of prieurianin. Differentiated cells were stained with Nile Red. Alternatively, preadipocytes were induced into differentiation and five days following differentiation, cells were treated with either 1 μM of bufalin or 2 μM of prieurianin for an additional five days and followed by staining with Nile Red. Stained cells were evaluated by fluorescence microscopy.
To determine the effects of prieurianin on the differentiation of preadipocytes to adipocytes, the NIH-3T3/L1 preadipocytes were treated with or without the drug at the same time when induction of differentiation was initiated.

[7] = tested on: PPARγ; assay: PPARγ response element luciferase reporter in L1 preadipocytes; type: cell-based; details: prieurianin 2 μM
Method: (§3) FIG. 18. Effects of prieurianin on C/EBPα and β and PPARγ mediated transcription in adipogenesis. Response elements corresponding to C/EBPα and β and PPARγ are cloned into the pGL3 basic luciferase reporter plasmid. L1 preadipocytes were contransfected with the reporter plasmid either in the presence or the absence of the corresponding transcription factors cloned into expression vector, followed by treatment with 2 μM of prieurianin. Cells were harvested for luciferase assay 15-24 hrs later. Results are means±S.E. of triplicate experiments.

[8] = tested on: C/EBPα; assay: C/EBPα response element luciferase reporter in L1 preadipocytes; type: cell-based; details: prieurianin 2 μM
Method: as §3

[9] = tested on: differentiated NIH-3T3/L1 adipocytes; assay: Loss of lipid-positive differentiated adipocytes (oil red O, A510; Nile Red); type: cell-based; details: 1 μM bufalin, Nile Red
Method: FIG. 8. Prieurianin induced loss of differentiated adipocytes. NIH-3T3/L1 preadipocytes were induced into differentiation. Five days following differentiation, cells were treated with various concentrations (0.5, 1, and 2 μM) of prieurianin for an additional five days and followed by staining with oil red O. Micrographs were obtained from representatives of triplicate experiments. Isopropanol extracts of positively stained cells were quantified spectrophotometrically at 510 nm as shown in histogram on the right. Results are means±S.E. of triplicate experiments.
as §2
To assess whether prieurianin has any effect on the differentiated adipocytes, the preadipocytes were allowed to differentiate into adipocytes and then were further cultured for about five days before treating the adipocytes with prieurianin for an additional five to six days, followed by oil red O staining for the presence of lipid accumulating adipocytes.

[10] = tested on: NFκB; assay: NFκB-response element luciferase reporter in L1 preadipocytes; type: cell-based; details: prieurianin 2 μM
[11] = tested on: C/EBPβ; assay: C/EBPβ response element luciferase reporter in L1 preadipocytes; type: cell-based; details: prieurianin 2 μM
Method: as §3

CC[C@@]1(O)C(=O)OCc2c1cc1n(c2=O)Cc2cc3c(CN(C)C)c(O)ccc3nc2-1 [topotecan, reference compound]
PLTP expression by Northern blot analysis ([1]; HepG2 cells): induced by topotecan dose-dependently
induction of PLTP expression ([1]; HepG2 cells, DNA microarray, peaking at 24 hrs): approximately 20 fold
onset of PLTP induction following treatment ([1]; time-course microarray analysis): 12 to 15 h
release of PLTP by adipocytes ([2]; adipocytes): induced an increase in the release of only the low molecular weight form of PLTP
release of PLTP by preadipocytes ([2]; preadipocytes): release of the low but not the high molecular form of PLTP was reduced
transactivation of PLTP promoter [3]: transactivated by topotecan dose dependently
serum PLTP protein levels [4]: a rise in the serum PLTP protein levels
adiponectin release by preadipocytes [5]: significantly inhibited the production of adiponectin

CN[C@@H]1C[C@H]2O[C@@](C)([C@@H]1OC)n1c3ccccc3c3c4c(c5c6ccccc6n2c5c31)C(=O)NC4 [staurosporine]
effect on TPA activation of PLTP promoter ([3]; co-treatment with TPA): abolished
effect on transactivation of PLTP promoter by prieurianin [3]: strongly inhibited PLTP transactivation by prieurianin; also recorded: inhibited
differentiation, staurosporine alone ([6]; data not shown): no observable effects on differentiation

C[C@]12CC[C@H](O)C[C@H]1CC[C@@H]1[C@@H]2CC[C@]2(C)[C@@H](c3ccc(=O)oc3)CC[C@]12O [bufalin, reference compound]
transactivation of PLTP promoter [3]: stimulates the PLTP promoter like prieurianin
transactivation potential of PPARγ [7]: nor did it modulate the transcriptional activity
transactivation potential of C/EBPα [8]: nor did it modulate the transcriptional activity
de-differentiation or delipidation in adipocytes [9]: neither causes de-differentiation or delipidation in adipocytes
differentiation of preadipocytes ([6]; 1 μM bufalin, Nile Red): did not, however, inhibit the differentiation of preadipocytes
NFκB-response element mediated transcription [10]: nor did it modulate the transcriptional activity
transactivation potential of C/EBPβ [11]: nor did it modulate the transcriptional activity

CCCCCCCCCCCCCC(=O)O[C@@H]1[C@@H](C)[C@@]2(O)[C@@H](C=C(CO)C[C@]3(O)C(=O)C(C)=C[C@@H]23)[C@@H]2C(C)(C)[C@]12OC(C)=O [TPA, 12-O-tetradecanoylphorbol-13-acetate]
transactivation of PLTP promoter [3]: induced PLTP promoter

CC(/C=C/C(=O)NO)=C\[C@@H](C)C(=O)c1ccc(N(C)C)cc1 [trichostatin A]
effect on transactivation of PLTP promoter by prieurianin [3]: though modest, potentiated the transactivation of PLTP promoter activity by prieurianin
